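Following 48 hours of exposure in 96-well plates, responses at five concentrations were used to interpolate endpoints linearly. At the GI50, growth is halved. Definition used: TGI = concentration required for complete inhibition of growth.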
Assays:
Experiment in all cases: DTP human tumour cell line panel, 48 h
[1] = system: HCT-116 colon
[2] = system: IGROV1 ovarian
[3] = system: NCI-H460 lung
[4] = system: NCI-H522 lung
[5] = system: NCI/ADR-RES ovarian
[6] = system: SK-MEL-5 melanoma
[7] = system: SR leukemia
[8] = system: T-47D breast
[9] = system: SK-OV-3 ovarian
[10] = system: UO-31 renal

| Compound | TGI [1] [µM] | TGI [2] [µM] | TGI [3] [µM] | TGI [4] [µM] | TGI [5] [µM] | TGI [6] [µM] | TGI [7] [µM] | TGI [8] [µM] | GI50 [1] [µM] | GI50 [2] [µM] | GI50 [3] [µM] | GI50 [4] [µM] | GI50 [5] [µM] | GI50 [6] [µM] | GI50 [9] [µM] | TGI [9] [µM] | GI50 [8] [µM] | GI50 [10] [µM] | TGI [10] [µM] | GI50 [7] [µM] |
| --- | --- | --- | --- | --- | --- | --- | --- | --- | --- | --- | --- | --- | --- | --- | --- | --- | --- | --- | --- | --- |
| O=C(O)C1C(=O)Oc2c(cccc2[N+](=O)[O-])C1O (stereo not given) | > 100 | > 100 | > 100 | > 100 | > 100 | > 100 | > 100 | > 100 |  |  |  |  |  |  |  |  |  |  |  |  |
| Cc1cccc(Cl)c1NC(=O)c1cnc(Nc2cc(N3CCOCC3)cc(N3CCOCC3)c2)s1 | > 10 | 0.0621 | > 10 | > 5.79 | > 10 | > 10 | > 10 | > 10 | 0.0328 | 0.00355 | > 5.16 | 0.0307 | 1.05 | > 8.96 | 0.0178 | 1.6 | 0.0368 | 0.0067 | 0.789 |  |
| O=C(Nc1ccc2[nH]c(C(=O)N3CC(CCl)c4c3cc([N+](=O)[O-])c3ccccc43)cc2c1)c1cc2ccccc2o1 (stereo not given) | > 1100 | > 1100 | > 1100 | > 1100 | > 1100 | > 1100 | > 1100 | > 1100 | > 1100 | > 1100 | 21 | > 1100 | > 1100 | > 1100 | > 1100 | > 1100 | > 1100 | > 1100 | > 1100 | 35.2 |
| O=C(/C=C/c1cccc([N+](=O)[O-])c1)c1ccc(O)c(CN2CCN(c3cc4c(cc3F)c(=O)c(C(=O)O)cn4C3CC3)CC2)c1 | 1.81 |  | 19.3 |  | 9.34 | 3.25 | 53.2 | 4.99 | 0.494 |  | 3.43 |  | 2.85 | 1.7 | 5 | > 100 | 1.85 | 1.29 | 2.67 | 0.398 |
| Nc1nc2ccc3[nH]ncc3c2c2c1CCCC2 | 5.86 | 11.2 | 4.56 | 5.88 | 5.57 | 4.08 |  | 11.7 | 1 | 2.29 | 1.6 | 2.17 | 1.75 | 1.54 | 2.94 | 14.7 | 2.55 | 2.13 | 10.5 | 0.467 |
| CC(C)[NH-].CC(C)[NH-].O.O.[Cl][Pt+2][Cl] | 69.3 | 132 | 62.3 | 74.2 | 343 | 59.9 | 53.5 | 381 | 20.6 | 33.4 | 8.8 | 20.4 | 60.9 | 21.2 | 28.6 | 92.6 | 50.9 | 147 | 356 | 17.8 |
| COc1c2c(c(CC=C(C)C)c3oc(=O)c(-c4ccc(O)cc4)c(O)c13)OC(C)(C)C=C2 | 37.5 | 44.9 | 68.4 | 62.9 | 93.7 | 25.8 | 79.9 | > 100 |  |  |  |  |  |  |  |  |  |  | > 100 |  |
| COc1ccc2c(c1)c1nc3cc(C)c(C)cc3nc1n2CCN(C)C | 1.64 | 1.97 | 1.39 | 2.8 | 2.46 | 3.01 | 4.81 | 4.25 | 0.354 | 0.464 | 0.369 | 0.582 | 0.599 | 1.62 | 1.5 | 3.48 | 1.2 | 0.541 | 2.1 | 0.428 |
| COc1cc2c(cc1OC)C(CC1(O)CCCCC1)N(S(=O)(=O)c1ccc(C)cc1)CC2 (stereo not given) | > 10 | > 10 | > 10 | > 10 | > 10 | > 10 | > 10 | > 10 | > 10 | > 10 | > 10 | > 10 | > 10 | > 10 | > 10 | > 10 | > 10 | > 10 | > 10 | > 10 |
| CN1C(=O)C(=Cc2cn(Cc3ccccc3)c3ccccc23)C(=O)N(C)C1=O | > 100 |  | > 100 | > 100 | > 100 | > 100 | > 100 | > 75.3 | 11.1 | 1.64 | 1.24 | > 100 | > 70 | 25.7 | 6.16 | > 100 | 3.91 | > 38.8 | > 81.4 | 43.1 |
| C[C@@H](NC(=O)[C@@H](CC(=O)N1CCC(N2CCCCC2)CC1)N1C(=O)[C@@H](N2C(=O)OC[C@@H]2c2ccccc2)[C@H]1/C=C/c1cccc(Cl)c1)c1ccccc1 | 4.11 | 19.2 | 3.95 | 4.14 | 24.8 | 3.34 | 7.78 | 4.33 | 1.97 | 4.62 | 2.02 | 1.79 | 5.92 | 1.85 | 12.9 | 27.5 | 1.9 | 2.03 | 5.35 | 2.61 |
| CC1(C)N=C(N)N=C(N)N1c1ccc(CCc2ccc(Cl)cc2S(=O)(=O)F)c(Cl)c1 | 16.2 | > 100 | > 100 |  | > 100 | 16.3 | 76.5 | 45.2 | 2.56 | 0.942 | 3.12 |  | > 100 | 4.39 | 19.1 | > 100 | 17 | > 100 | > 100 | 6.05 |
| C[C@]1(C(=O)O)N[C@H](C(=O)O)CS1 | > 1000 | > 1000 | > 1000 | > 1000 | > 1000 | 270 |  | > 1000 | > 1000 | > 1000 | > 1000 | > 1000 | > 1000 | 1.48 | > 1000 | > 1000 | > 1000 | > 1000 | > 1000 |  |
| CC(=O)C1COC(O)C1C (stereo not given) | 39.6 | 42.5 | 44.5 |  | 48.6 | 29.7 | 40.1 | > 100 |  |  |  |  |  |  |  | 82.3 |  |  | 34.9 |  |

From PubChem BioAssay (NCI)
